According to patent US20140088069A1, “NOVEL ANTIBACTERIAL COMBINATION THERAPY” (priority 2011, published 2014):
Read-outs that look alike come from different tables or passages of the source.

Columns and labels:
Type in all cases: cell-based, Staphylococcus aureus
MRSA = assay: Analogues in combination with cefuroxime against MRSA (FIC index)
Method: A series of analogues were synthesized (as shown in Table 5) in which the thienopyridine ring was removed.
These were tested in combination with cefuroxime against MRSA and results are shown below (Table 6).

CA-MRSA USA300 = assay: Checkerboard (FIC) analysis against CA-MRSA USA300; details: for MIC: Staphylococcus aureus
Method: Here a matrix of drug concentrations were tested in combinations at the concentrations shown (μg/mL). Greyscale indicates growth—darker is more growth, lighter is less growth. FIC index is a measure of synergy and is calculated as follows: FIC index=FIC (cefuroxime)+FIC (drug compound).
The combination of ticlopidine and cefuroxime was further tested as above against a variety of S. aureus strains as shown in Table 1 below.
FIC index=FIC (β-lactam)+FTC (ticlopidine). […]

HA-MRSA USA100/800/NY = assay: Checkerboard (FIC) analysis, HA-MRSA USA100/800/NY
HA-MRSA [1] = assay: Checkerboard (FIC) analysis, HA-MRSA (Table 1 r16)
HA-MRSA [2] = assay: Checkerboard (FIC) analysis, HA-MRSA (Table 1 r13)
Method: (§1) Here a matrix of drug concentrations were tested in combinations at the concentrations shown (μg/mL). […] FIC index is a measure of synergy and is calculated as follows: FIC index=FIC (cefuroxime)+FIC (drug compound).

RN4220 = assay: Checkerboard (FIC) analysis, RN4220; details: in the presence of ticlopidine
Method: as §1

CA-MRSA USA400/MW2 = assay: Checkerboard (FIC) analysis, CA-MRSA USA400/MW2
HA-MRSA EMRSA15 = assay: Checkerboard (FIC) analysis, HA-MRSA EMRSA15
HA-MRSA USA600 = assay: Checkerboard (FIC) analysis, HA-MRSA USA600
HA-MRSA [3] = assay: Checkerboard (FIC) analysis, HA-MRSA (Table 1 r10)
HA-MRSA USA200/EMRSA16 = assay: Checkerboard (FIC) analysis, HA-MRSA USA200/EMRSA16
SA178R1 = assay: Checkerboard (FIC) analysis, SA178R1
[4] = test system: S. aureus (Newman strain); assay: Checkerboard (FIC) analysis against S. aureus Newman
HA-MRSA USA500 = assay: Checkerboard (FIC) analysis, HA-MRSA USA500
[5] = compound in combination with cefuroxime, MRSA (Table 5)
[6] = novel analogue in combination with cefuroxime, MRSA (Table 6)
[7] = Staphylococcus aureus, cefuroxime alone, read-out: MIC cefuroxime

CCN1CCN(Cc2ccccc2Cl)CC1 [Compound 10, 1-(2-Chloro-benzyl)-4-ethyl-piperazine]
FIC index (MRSA; [5]): ≦2

Clc1ccc2c(c1)CCN(Cc1ccccc1Cl)C2 [Compound 1-novel, 6-Chloro-2-(2-chloro-benzyl)-1,2,3,4-tetrahydro-isoquinoline]
FIC index (MRSA; [6]): ≦2

Cc1ccccc1CN1CCc2ccccc2C1 [Compound 14, 2-(2-Methyl-benzyl)-1,2,3,4-tetrahydro-isoquinoline]
FIC index (MRSA; [5]): ≦0.125

FC(F)(F)c1ccccc1CN1CCc2ccccc2C1 [Compound 17, 2-(2-Trifluoromethyl-benzyl)-1,2,3,4-tetrahydro-isoquinoline]
FIC index (MRSA; [5]): ≦0.094

Clc1ccccc1CN1CCCc2ccccc21 [Compound 9, 1-(2-Chloro-benzyl)-1,2,3,4-tetrahydro-quinoline]
FIC index (MRSA; [5]): ≦0.187

c1cc2c(s1)CCNC2 [Compound 2, 4,5,6,7-Tetrahydro-thieno[3,2-c]pyridine]
FIC index (MRSA; [5]): ≦2

Clc1ccccc1CN1CCCC1 [Compound 11, 1-(2-Chloro-benzyl)-pyrrolidine]
FIC index (MRSA; [5]): ≦2

Fc1ccccc1CN1CCc2ccccc2C1 [Compound 15, 2-(2-Fluoro-benzyl)-1,2,3,4-tetrahydro-isoquinoline]
FIC index (MRSA; [5]): ≦0.187

Clc1ccc(CN2CCc3ccccc3C2)cc1 [Compound 5, 2-(4-Chloro-benzyl)-1,2,3,4-tetrahydro-isoquinoline]
FIC index (MRSA; [5]): ≦2

O=C(O)C(c1ccccc1C(F)(F)F)N1CCc2ccccc2C1 (stereo not shown) [Compound 23]
FIC index (MRSA; [5]): ≦2

COC(=O)C(c1ccccc1C(F)(F)F)N1CCc2ccccc2C1 (stereo not shown) [Compound 21]
FIC index (MRSA; [5]): ≦0.125

O=[N+]([O-])c1ccccc1CN1CCc2ccccc2C1 [Compound 16, 2-(2-Nitro-benzyl)-1,2,3,4-tetrahydro-isoquinoline]
FIC index (MRSA; [5]): ≦0.187

COC(=O)[C@H](c1ccccc1Cl)N1CCc2sccc2C1 [Compound 19, (+)-(S)-methyl 2-(2-chlorophenyl)-2-(6,7-dihydrothieno[3,2-c]pyridin-5(4H)-yl)acetate]
MIC (CA-MRSA USA300; thienopyridine alone, CA-MRSA USA300 (Table 4), read-out: MIC thienopyridine): > 128 µg/mL
FIC thienopyridine (CA-MRSA USA300; in the presence of cefuroxime, CA-MRSA USA300 (Table 4)): 0.13
FIC index (CA-MRSA USA300; thienopyridine in combination with cefuroxime, CA-MRSA USA300 (Table 4), listed as Clopidogrel): ≦0.20
FIC index (CA-MRSA USA300; thienopyridine in combination with cefuroxime, CA-MRSA USA300 (Table 4), listed as clopidogrel): ≤ 0.20
FIC index (MRSA; [5]): ≦0.187

Clc1ccccc1CN1CCc2ccccc2C1 [Compound 3, 2-(2-Chloro-benzyl)-1,2,3,4-tetrahydro-isoquinoline]
FIC index (MRSA; [5]): ≦0.125

Clc1ccccc1CN1CCCCC1 [Compound 12, 1-(2-Chloro-benzyl)-piperidine]
FIC index (MRSA; [5]): ≦2

CO/N=C(\C(=O)N[C@@H]1C(=O)N2C(C(=O)O)=C(COC(N)=O)CS[C@H]12)c1ccco1 [Cefuroxime]
MIC (HA-MRSA USA100/800/NY; [7]): 1020 µg/mL
FIC cefuroxime (HA-MRSA USA100/800/NY; in the presence of ticlopidine): 0.125
FIC cefuroxime (HA-MRSA [1]; HA-MRSA (Table 1 r16), in the presence of ticlopidine): 0.125
MIC (HA-MRSA [1]; Staphylococcus aureus, HA-MRSA (Table 1 r16, no further strain name), cefuroxime alone, read-out: MIC cefuroxime): 2050 µg/mL
FIC cefuroxime (HA-MRSA [2]; HA-MRSA (Table 1 r13), in the presence of ticlopidine): 0.250
MIC (HA-MRSA [2]; Staphylococcus aureus, HA-MRSA (Table 1 r13, no further strain name), cefuroxime alone, read-out: MIC cefuroxime): > 2050 µg/mL
FIC cefuroxime (RN4220): 1
MIC (CA-MRSA USA400/MW2; [7]): 256 µg/mL
FIC cefuroxime (CA-MRSA USA400/MW2; in the presence of ticlopidine): 0.063
MIC (HA-MRSA EMRSA15; [7]): 512 µg/mL
FIC cefuroxime (HA-MRSA EMRSA15; in the presence of ticlopidine): 0.063
MIC (HA-MRSA USA600; [7]): ≥ 1020 µg/mL
FIC cefuroxime (HA-MRSA USA600; in the presence of ticlopidine): 0.008
FIC cefuroxime (HA-MRSA [3]; HA-MRSA (Table 1 r10), in the presence of ticlopidine): 0.250
MIC (HA-MRSA [3]; Staphylococcus aureus, HA-MRSA (Table 1 r10, no further strain name), cefuroxime alone, read-out: MIC cefuroxime): > 2050 µg/mL
FIC cefuroxime (CA-MRSA USA300; CA-MRSA USA300 (Table 1), in the presence of ticlopidine): 0.032
MIC (CA-MRSA USA300; CA-MRSA USA300 (Table 1), cefuroxime alone, read-out: MIC cefuroxime): 512 µg/mL
MIC (CA-MRSA USA300; cefuroxime alone, CA-MRSA USA300 (Table 4), read-out: MIC Cefuroxime): 256 µg/mL
FIC index (CA-MRSA USA300; antibiotic in combination with ticlopidine, CA-MRSA USA 300, FIC (β-lactam)+FIC (ticlopidine)): ≦0.13
FIC cefuroxime (CA-MRSA USA300; in the presence of clopidogrel, CA-MRSA USA300 (Table 4)): 0.063
FIC cefuroxime (CA-MRSA USA300; in the presence of prasugrel, CA-MRSA USA300 (Table 4)): 0.25
FIC cefuroxime (CA-MRSA USA300; in the presence of ticlopidine, CA-MRSA USA300 (Table 4)): 0.03
MIC (HA-MRSA USA200/EMRSA16; [7]): 1020 µg/mL
FIC cefuroxime (HA-MRSA USA200/EMRSA16; in the presence of ticlopidine): 0.032
MIC (SA178R1; [7]): 0.5 µg/mL
FIC cefuroxime (SA178R1; in the presence of ticlopidine): 1
FIC cefuroxime ([4]; Newman, in the presence of ticlopidine): 0.125
MIC ([4]; Staphylococcus aureus, Newman, cefuroxime alone, read-out: MIC cefuroxime): 2 µg/mL
FIC index ([4]; antibiotic in combination with ticlopidine, S. aureus (Newman strain)): ≦0.25
MIC (HA-MRSA USA500; [7]): 32 µg/mL
FIC cefuroxime (HA-MRSA USA500; in the presence of ticlopidine): 1

c1ccc2c(c1)CCN(Cc1ccncc1)C2 [Compound 7, 2-Pyridin-4-ylmethyl-1,2,3,4-tetrahydro-isoquinoline]
FIC index (MRSA; [5]): ≦2

O=C(O)C(c1ccccc1Cl)N1CCc2sccc2C1 (stereo not shown) [Compound 20]
FIC index (MRSA; [5]): ≦0.75

COC(=O)C(c1ccccc1Cl)N1CCc2ccccc2C1 (stereo not shown) [Compound 18, (2-Chloro-phenyl)-(3,4-dihydro-1H-isoquinolin-2-yl)-acetic acid methyl ester]
FIC index (MRSA; [5]): ≦0.187

Clc1cccc(CN2CCc3ccccc3C2)c1 [Compound 4, 2-(3-Chloro-benzyl)-1,2,3,4-tetrahydro-isoquinoline]
FIC index (MRSA; [5]): ≦2

c1ccc2c(c1)CCN(Cc1ccc3ccccc3c1)C2 [Compound 3-novel, 2-Naphthalen-2-ylmethyl-1,2,3,4-tetrahydro-isoquinoline]
FIC index (MRSA; [6]): ≦0.312

NC(=O)C(c1ccccc1C(F)(F)F)N1CCc2ccccc2C1 (stereo not shown) [Compound 22]
FIC index (MRSA; [5]): ≦1

Clc1ccccc1C[n+]1ccc2ccccc2c1 [Compound 8, 2-(2-Chloro-benzyl)-isoquinolinium]
FIC index (MRSA; [5]): ≦2

Clc1ccccc1CN1CCC2CCCCC2C1 (stereo not shown) [Compound 13, 2-(2-Chloro-benzyl)-decahydro-isoquinoline]
FIC index (MRSA; [5]): ≦2

Oc1ccc2c(c1)CN(Cc1ccccc1Cl)CC2 [Compound 2-novel, 2-(2-Chloro-benzyl)-1,2,3,4-tetrahydro-isoquinolin-7-ol]
FIC index (MRSA; [6]): ≦2

O=C(O)C(c1ccccc1Cl)N1CCc2ccccc2C1 (stereo not shown) [Compound 4-novel, (2-Chloro-phenyl)-(3,4-dihydro-1H-isoquinolin-2-yl)-acetic acid]
FIC index (MRSA; [6]): ≦2

c1ccc(CN2CCc3ccccc3C2)cc1 [Compound 6, 2-Benzyl-1,2,3,4-tetrahydro-isoquinoline]
FIC index (MRSA; [5]): ≦0.625
